Reference: patent publication US9603922B2, “Modulation of NKT cell activity with antigen-loaded CD1d molecules” (VACCINEX, INC., priority 2007, dated 2017)

B1: αGalCer/sCD1d: soluble monomeric mouse β2m-CD1d, His-tagged, loaded with αGalCer (protein)
chain: IQKTPQIQVYSRHPPENGKPNILNCYVTQFHPPHIEIQMLKNGKKIPKVEMSDMSFSKDWSFYILAHTEFTPTETDTYACRVKHASMAEPKTVYWDRDMGGGGSGGSGSGGGSEAQQKNYTFRCLQMSSFANRSWSRTDSVVWLGDLQTHRWSNDSATISFTKPWSQGKLSNQQWEKLQHMFQVYRVSFTRDIQELVKMMSPKEDYPIEIQLSAGCEMYPGNASESFLHVAFQGKYVVRFWGTSWQTVPGAPSWLDLPIKVLNADQGTSATVQMLLNDTCPLFVRGLLEAGKSDLEKQEKPVAWLSSVPSSADGHRQLVCHVSGFYPKPVWVMWMRGDQEQQGTHRGDFLPNADETWYLQATLDVEAGEEAGLACRVKHSSLGGQDIILYWSSGSGGHHHHHH

How the values were obtained:
iNKT cells in PBMC = experiment: iNKT frequency in peripheral blood during systemic treatment; type: in vivo, mouse; details: PBMC 3 days after third i.v. injection
Description: FIG. 3: iNKT expansion in blood during systemic treatment with αGalCer loaded recombinant CD1d molecules. Mice were bled after the third injection of either PBS (control) αGalCer (0.4 μg), αGalCer/CD1d-anti-Her2 fusion protein (Fusion, 40 μg), or αGalCer/sCD1d (sCD1d, 20 μg). NKT cells were stained in PBMCs using the CD1d-Tetramer-PE and anti CD3 FITC antibody. a representative dot blot of one mouse from each group. b graph representing several mice per group expressed as CD1d tetramer positive and CD3+ cells as percentage of total PBMC.
Increased frequency of iNKT cells during systemic treatment: normally iNKT cells are not detectable in mouse peripheral blood as shown on FIG. 3. In contrast, they became clearly detectable upon systemic treatment with recombinant αGalCer/CD1d molecules, whereas there was no change with αGalCer alone. FIG. 3a gives representative dot plots of FACS staining with CD1d-tetramer+anti-CD3 on PBMC 3 days after the third injection with either PBS, free αGalCer, αGalCer/CD1d-anti HER2, or αGalCer/sCD1d (five mice per group, i.v., injection every 3 days).

B16-HER2 cells = experiment: Precoating experiment, lung metastases of B16-HER2 cells; type: in vivo, mouse; details: cells pre-incubated with agent, injected i.v. into naïve mice
Description: Quantification of lung metastasis. Metastatic nodule surface area was measured on 2560×1920 pixels photographs of the whole organs, taken on an Zeiss STEMI SV11 dissection microscope (Carl Zeiss, Jena, Germany) equipped with a PROGRES-C10plus Color Camera (Jenoptik, Jena, Germany). Each image was analyzed with the ImageJ program (rsb.info.nih.gov/ij/) using a k-means clustering algorithm (plugin available on ij-plugins.sourceforge.net). Images were segmented into 9 segments cluster tolerance 1×10−4, randomization seed: 48) and the appropriate segments were selected based on the color of the metastasis reaching the surface of the organ. The area of the sum of selected color segments was expressed as percentage of the area occupied by the lungs. Both sides of the lung were analyzed. This method takes into account both the number and the size of the tumor nodules.

B16-HER2 melanoma cells = experiment: Systemic treatment of B16-HER2 lung metastases; type: in vivo, mouse; details: 5 i.v. injections starting 48 hours after tumor graft
Description: FIG. 6: In vivo anti tumor activity—Systemic Treatment. a Mice were grafted i.v. with 700.000 B16-HER2 cells and i.v. treatment was started 48 hours later. Mice were injected i.v. 5 times every 2 to 3 days with PBS (control), αGalCer (0.4 μg), αGalCer/sCD1d (sCD1d, 25 μg), or αGalCer/CD1d-anti-HER2 fusion (Fusion, 40 μg). Lung metastases were analysed after 3 weeks by the ImageJ k-means clustering program and expressed as percent metastatic surface over total lung surface. […] Mice were injected i.v. with 700,000 B16-HER2 cells and treatment with PBS (Control), αGalCer, or αGalCer/CD1d-anti-HER2 fusion protein (Fusion) was started 6 days after graft. Mice were treated 3× i.v. every 2-3 days and lung metastases were analyzed after 3 weeks as described above.
Quantification of lung metastasis. Metastatic nodule surface area was measured on 2560×1920 pixels photographs of the whole organs, taken on an Zeiss STEMI SV11 dissection microscope (Carl Zeiss, Jena, Germany) equipped with a PROGRES-C10plus Color Camera (Jenoptik, Jena, Germany). Each image was analyzed with the ImageJ program (rsb.info.nih.gov/ij/) using a k-means clustering algorithm (plugin available on ij-plugins.sourceforge.net). […] The area of the sum of selected color segments was expressed as percentage of the area occupied by the lungs. Both sides of the lung were analyzed. […]

[1] = tested on: splenocytes, CD11c+ CD40+ DC; experiment: Mature DC (CD11c+ CD40+) in splenocyte cultures of OVA-immunized mice; type: cell-based, mouse; details: same cultures, following restimulation
Description: FIG. 8: αGalCer loaded sCD1d acts as a strong adjuvant for the expansion of antigen-specific T cells upon active immunization. a kinetics of expansion of H-2K^b/OVA specific CTLs. Mice were primed with 200 μg ovalbumin either as such (i.v.) or with MONTANIDE™ adjuvant (3:7 ratio, s.c.) or with 1 μg αGalCer or 20 μg αGalCer/sCD1d (i.v.). Mice were bled every 5-7 days and PBMC were stained with H-2K^b/oVA tetramer+anti-CD8. Results were expressed as tetramer+ and CD8+ […] as a percentage of total CD8+ T cells. Mice were boosted with OVA peptide (20 μg) on day 22 employing the same adjuvants and route of injection as for primary immunization. b Ten days later, mice were sacrificed and splenocytes were cultured another five days either with no stimuli or with the same stimuli and adjuvants as for the in vivo boost. Frequency of OVA specific T cells was measured as in a. c The presence of mature DC in the same cultures as in b was analyzed by surface staining with anti CD11c and anti CD40 antibodies.
Together with active OVA immunization: An adjuvant effect has previously been attributed to free αGalCer and its potential use in vaccination has been proposed (Silk, J. D., et al. J Clin Invest 114:1800-1811 (2004)). […]

Molecule | Frequency of iNKT cells in peripheral blood (iNKT cells in PBMC) | Lung metastases of precoated B16-HER2 cells (B16-HER2 cells) | Anti tumor effect in words (B16-HER2 melanoma cells) | Frequency of mature DC (CD11c+CD40+) [1]
CCCCCCCCCCCCCCCCCCCCCCCCCC(=O)N[C@@H](CO[C@H]1O[C@H](CO)[C@H](O)[C@H](O)[C@H]1O)[C@H](O)[C@H](O)CCCCCCCCCCCCCC [αGalCer, α-galactosylceramide, reference compound] | no change | completely inhibited tumor development | no significant anti tumor effect | 
B1 |  |  | anti tumor activity which was very variable from mouse to mouse | increased frequency of mature DC
